Converted amounts (≈) assume the structure as drawn. Like-named read-outs stand apart in the source and are kept apart here. Numbered stars: 1 amine (or outer) side, 2 acyl side, 3 side chain; on linkers, the order of the positions; unused ones are H or OH. Bridge positions count the residues as written; N and C are the ends. Square brackets hold non-standard residues; d marks the D form. Peptide text beside a SMILES is read from it. * marks the point of attachment. dαMeDab(Me) = CN(CC[C@@](C)(N[*:1])C(=O)[*:2])[*:3]; X8 = CN(CC=[*:3])CCC[C@](C)(N[*:1])C(=O)[*:2]; X6 = CN(CC=[*:3])CC[C@](C)(N[*:1])C(=O)[*:2]; X4 = O=C([C@]1(N[*:1])CCN(CC=[*:3])C1)[*:2]; X5 = C[C@](CCCCCC=[*:3])(N[*:1])C(=O)[*:2]; X1 = O=C([C@]1(N[*:1])CCN([*:3])C1)[*:2]; X9 = C[C@](CCC=[*:3])(N[*:1])C(=O)[*:2]; X2 = O=C(OCC=CCOC(=O)[*:2])[*:1]; R8 = C=CCCCCCC[C@@](C)(N)C(=O)O; Lauroyl = CCCCCCCCCCCC(=O)*; Octanoyl = CCCCCCCC(=O)*
Experiments:
[1] = molecular target: T1, full-length beta-catenin (Axin site) (Homo sapiens, UniProt P35222); test: Competition fluorescence polarization assay (Axin site probe); assay type: binding; settings: competition fluorescence polarization, Table 2; read-out: in vitro FP EC50
T1 construct: 15 nM full-length beta-catenin, 20 nM FITC labeled peptide in buffer
T1 sequence (P35222 1-781): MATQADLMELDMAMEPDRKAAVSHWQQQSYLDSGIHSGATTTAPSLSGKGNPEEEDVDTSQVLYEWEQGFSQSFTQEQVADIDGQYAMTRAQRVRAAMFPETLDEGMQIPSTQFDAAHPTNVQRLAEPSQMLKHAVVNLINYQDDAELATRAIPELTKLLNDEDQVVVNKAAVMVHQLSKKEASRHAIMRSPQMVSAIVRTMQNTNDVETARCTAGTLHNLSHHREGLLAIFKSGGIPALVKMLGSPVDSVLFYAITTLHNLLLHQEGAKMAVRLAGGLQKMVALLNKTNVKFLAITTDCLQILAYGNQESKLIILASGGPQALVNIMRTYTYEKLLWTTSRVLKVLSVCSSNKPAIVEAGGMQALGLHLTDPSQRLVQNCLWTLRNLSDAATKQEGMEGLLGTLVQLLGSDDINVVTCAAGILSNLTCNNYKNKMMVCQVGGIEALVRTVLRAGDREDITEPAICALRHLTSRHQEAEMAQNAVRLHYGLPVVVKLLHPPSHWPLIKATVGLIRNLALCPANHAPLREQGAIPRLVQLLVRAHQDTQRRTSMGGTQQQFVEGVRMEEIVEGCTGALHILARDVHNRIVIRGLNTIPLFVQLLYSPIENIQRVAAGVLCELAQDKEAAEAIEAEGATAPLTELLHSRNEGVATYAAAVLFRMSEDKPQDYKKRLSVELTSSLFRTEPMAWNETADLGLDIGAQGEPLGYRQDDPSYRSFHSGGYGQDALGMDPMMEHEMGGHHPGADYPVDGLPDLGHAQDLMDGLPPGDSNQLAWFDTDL
Method in brief: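 Competition FP: 15 nM full-length β-catenin pre-incubated 5 min with 20 nM FITC-labelled stapled Axin-site peptide, then titrated peptide added (3-fold series from 5 μM) for 15 min in the dark. Buffer 50 mM Tris pH 8.0, 250 mM NaCl, 2% glycerol, 0.5 mM EDTA; duplicate reads.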

[2] = Solubility in DPBS (A280 of supernatant); assay type: physicochemical
Experimental: Suitable assays for assessing solubility are widely known in the art and can be utilized in accordance with the present disclosure. In some embodiments, in an exemplary protocol, dried peptide was reconstituted in DPBS (DPBS, 1×, cell culture grade, Sigma D8537) in triplicate, vortexed, sonicated and then centrifuged. Absorbance of the supernatant was measured at A280 (Nanodrop 2000) and the concentration was determined using the extinction coefficient for tryptophan. Exemplary solubility data are presented in, e.g., Table 2.

[3] = DPBS, Table 2, read-out: Solubility
[4] = DPBS, Table 3 Part B, amino-stapled product, read-out: Solubility in DPBS

EC50 [1] [nM]	solubility [2, 3] [µM]	Compound	further results
< 100		CC[C@H](C)[C@@H]1NC(=O)[C@H](Cc2c[nH]cn2)NC(=O)[C@H](C)NC(=O)[C@H](CC(=O)O)NC(=O)[C@H](CC(C)C)NC(=O)[C@H]([C@@H](C)CC)NC(=O)[C@](C)(NC(=O)[C@H](C)NC(C)=O)CCCC=CCOC(=O)N(C)CCC[C@@](C)(C(=O)N[C@@H](CCCNC(=N)N)C(=O)N[C@H](C(=O)N[C@@H](Cc2c[nH]c3ccccc23)C(N)=O)C(C)C)NC1=O (single isomer, unassigned) [FP0510c Isomer 1, Ac-A-R5-I-L-D-A-H-I-MH-R-V-W-NH2]	Solubility in DPBS ([2]; DPBS, Table 3 Part A): 65 (Isomer 1) μM
< 100		CC[C@H](C)[C@@H]1NC(=O)[C@H](Cc2c[nH]cn2)NC(=O)[C@H](C)NC(=O)[C@H](CC(=O)O)NC(=O)[C@H](CC(C)C)NC(=O)[C@H]([C@@H](C)CC)NC(=O)[C@](C)(NC(=O)[C@H](C)NC(C)=O)CCCC=CCOC(=O)N(C)CCC[C@@](C)(C(=O)N[C@@H](CCCNC(=N)N)C(=O)N[C@H](C(=O)N[C@@H](Cc2c[nH]c3ccccc23)C(N)=O)C(C)C)NC1=O (single isomer, unassigned) [FP0510c Isomer 2, Ac-A-R5-I-L-D-A-H-I-MH-R-V-W-NH2]	Solubility in DPBS ([2]; DPBS, Table 3 Part A): 31 (Isomer 2) μM
< 100		CC[C@H](C)[C@@H]1NC(=O)[C@H](Cc2c[nH]cn2)NC(=O)[C@H](C)NC(=O)[C@H](CC(=O)O)NC(=O)[C@H](CC(C)C)NC(=O)[C@H]([C@@H](C)CC)NC(=O)[C@](C)(NC(=O)[C@H](C)NC(C)=O)CCCCC=CCOC(=O)N(C)CCC[C@@](C)(C(=O)N[C@@H](CCCNC(=N)N)C(=O)N[C@H](C(=O)N[C@@H](Cc2c[nH]c3ccccc23)C(N)=O)C(C)C)NC1=O (single isomer, unassigned) [FP0511c Isomer 1, Ac-A-R6-I-L-D-A-H-I-MH-R-V-W-NH2]	Solubility in DPBS ([2]; DPBS, Table 3 Part A): 49 (Isomer 1) μM
< 100		CC[C@H](C)[C@@H]1NC(=O)[C@H](Cc2c[nH]cn2)NC(=O)[C@H](C)NC(=O)[C@H](CC(=O)O)NC(=O)[C@H](CC(C)C)NC(=O)[C@H]([C@@H](C)CC)NC(=O)[C@](C)(NC(=O)[C@H](C)NC(C)=O)CCCCC=CCOC(=O)N(C)CCC[C@@](C)(C(=O)N[C@@H](CCCNC(=N)N)C(=O)N[C@H](C(=O)N[C@@H](Cc2c[nH]c3ccccc23)C(N)=O)C(C)C)NC1=O (single isomer, unassigned) [FP0511c Isomer 2, Ac-A-R6-I-L-D-A-H-I-MH-R-V-W-NH2]	Solubility in DPBS ([2]; DPBS, Table 3 Part A): 24 (Isomer 2) μM
		CC[C@H](C)[C@@H]1NC(=O)[C@H](Cc2c[nH]cn2)NC(=O)[C@H](C)NC(=O)[C@H](CC(=O)O)NC(=O)[C@H](CC(C)C)NC(=O)[C@H]([C@@H](C)CC)NC(=O)[C@](C)(NC(=O)[C@H](C)NC(C)=O)CCCCCCC=CCOC(=O)N2CC[C@@](C(=O)N[C@@H](CCCNC(=N)N)C(=O)N[C@H](C(=O)N[C@@H](Cc3c[nH]c4ccccc34)C(N)=O)C(C)C)(C2)NC1=O (single isomer, unassigned) [FPO217c, Ac-AR8ILDAHIMBRVW (SEQ ID NO: 280)]	solubility thermodynamic ([2]; DPBS, read-out: solubility): 7 µM (≈ 11.1 µg/mL)
> 5000	111 (≈ 171 µg/mL)	CC[C@H](C)[C@@H]1NC(=O)[C@H](Cc2c[nH]cn2)NC(=O)[C@H](C)NC(=O)[C@H](CC(=O)O)NC(=O)[C@H](CC(C)C)NC(=O)[C@H]([C@@H](C)CC)NC(=O)[C@](C)(NC(=O)[C@H](C)NC(C)=O)CCCCCCC=CCN2CC[C@@](C(=O)N[C@@H](CCCNC(=N)N)C(=O)N[C@H](C(=O)N[C@@H](Cc3c[nH]c4ccccc34)C(N)=O)C(C)C)(C2)NC1=O [FP0217a, Ac-A-R8-I-L-D-A-H-I-MB-R-V-W-NH2] (Ac-A[R8]ILDAHI[X4]RVW-NH2; staple 2-9)	solubility [2, 4]: 111 µM (≈ 171 µg/mL)
< 100	155 (≈ 250 µg/mL)	CC[C@H](C)[C@@H]1NC(=O)[C@H](Cc2c[nH]cn2)NC(=O)[C@H](C)NC(=O)[C@H](CC(=O)O)NC(=O)[C@H](CC(C)C)NC(=O)[C@H]([C@@H](C)CC)NC(=O)[C@](C)(NC(=O)[C@H](C)NC(=O)CCN)CCCCCCC=CCOC(=O)N2CC[C@@](C(=O)N[C@@H](CCCNC(=N)N)C(=O)N[C@H](C(=O)N[C@@H](Cc3c[nH]c4ccccc34)C(N)=O)C(C)C)(C2)NC1=O [FP0217c_bAfree, bA-A-R8-I-L-D-A-H-I-MB-R-V-W-NH2]	
< 100	26 (≈ 41.2 µg/mL)	CC[C@H](C)[C@@H]1NC(=O)[C@H](Cc2c[nH]cn2)NC(=O)[C@H](C)NC(=O)[C@H](CC(=O)O)NC(=O)[C@H](CC(C)C)NC(=O)[C@H]([C@@H](C)CC)NC(=O)[C@](C)(NC(=O)[C@H](C)NC(C)=O)CCCCCCCCCOC(=O)N2CC[C@@](C(=O)N[C@@H](CCCNC(=N)N)C(=O)N[C@H](C(=O)N[C@@H](Cc3c[nH]c4ccccc34)C(N)=O)C(C)C)(C2)NC1=O [FP0217rc, Ac-A-R8-I-L-D-A-H-I-MB-R-V-W-NH2]	
< 100	14 (≈ 21.2 µg/mL)	CC[C@H](C)[C@@H]1NC(=O)[C@H](Cc2c[nH]cn2)NC(=O)[C@H](C)NC(=O)[C@H](CC(=O)O)NC(=O)[C@H](CC(C)C)NC(=O)[C@H]([C@@H](C)CC)NC(=O)[C@](C)(NC(C)=O)CCCCCCC=CCOC(=O)N2CC[C@@](C(=O)N[C@@H](CCCNC(=N)N)C(=O)N[C@H](C(=O)N[C@@H](Cc3c[nH]c4ccccc34)C(N)=O)C(C)C)(C2)NC1=O [FP0220c, Ac-R8-I-L-D-A-H-I-MB-R-V-W-NH2]	
100 to 500	236 (≈ 364 µg/mL)	CC[C@H](C)[C@@H]1NC(=O)[C@H](Cc2c[nH]cn2)NC(=O)[C@H](C)NC(=O)[C@H](CC(=O)O)NC(=O)[C@H](CC(C)C)NC(=O)[C@H]([C@@H](C)CC)NC(=O)[C@](C)(NC(=O)[C@H](C)NC(C)=O)CCCCCC=CCN(C)CC[C@@](C)(C(=O)N[C@@H](CCCNC(=N)N)C(=O)N[C@H](C(=O)N[C@@H](Cc2c[nH]c3ccccc23)C(N)=O)C(C)C)NC1=O [FP0503a, Ac-A-R7-I-L-D-A-H-I-MF-R-V-W-NH2] (Ac-A[X5]ILDAHI[X6]RVW-NH2; staple 2-9)	solubility [2, 4]: 236 µM (≈ 364 µg/mL)
100 to 500	35 (≈ 55.5 µg/mL)	CC[C@H](C)[C@@H]1NC(=O)[C@H](Cc2c[nH]cn2)NC(=O)[C@H](C)NC(=O)[C@H](CC(=O)O)NC(=O)[C@H](CC(C)C)NC(=O)[C@H]([C@@H](C)CC)NC(=O)[C@](C)(NC(=O)[C@H](C)NC(C)=O)CCCCCC=CCOC(=O)N(C)CC[C@@](C)(C(=O)N[C@@H](CCCNC(=N)N)C(=O)N[C@H](C(=O)N[C@@H](Cc2c[nH]c3ccccc23)C(N)=O)C(C)C)NC1=O [FP0503c, Ac-A-R7-I-L-D-A-H-I-MF-R-V-W-NH2]	solubility ([2]; DPBS, Table 3 Part A, read-out: Solubility in DPBS): 35 µM (≈ 55.5 µg/mL)
500 to 5000	192 (≈ 291 µg/mL)	CC[C@H](C)[C@@H]1NC(=O)[C@H](Cc2c[nH]cn2)NC(=O)[C@H](C)NC(=O)[C@H](CC(=O)O)NC(=O)[C@H](CC(C)C)NC(=O)[C@H]([C@@H](C)CC)NC(=O)[C@](C)(NC(=O)[C@H](C)NC(C)=O)CCC=CCN(C)CCC[C@@](C)(C(=O)N[C@@H](CCCNC(=N)N)C(=O)N[C@H](C(=O)N[C@@H](Cc2c[nH]c3ccccc23)C(N)=O)C(C)C)NC1=O [FP0509a, Ac-A-R4-I-L-D-A-H-I-MH-R-V-W-NH2] (Ac-A[X9]ILDAHI[X8]RVW-NH2; staple 2-9)	solubility [2, 4]: 192 µM (≈ 291 µg/mL)
		CCCCCCCC(=O)N[C@@H](C)C(=O)N[C@]1(C)CCN(C)C(=O)OCC=CCOC(=O)N2CC[C@@](C(=O)N[C@@H](CCCNC(=N)N)C(=O)N[C@H](C(=O)N[C@@H](Cc3c[nH]c4ccccc34)C(N)=O)C(C)C)(C2)NC(=O)[C@H]([C@@H](C)CC)NC(=O)[C@H](Cc2c[nH]cn2)NC(=O)[C@H](C)NC(=O)[C@H](CC(=O)O)NC(=O)[C@H](CC(C)C)NC(=O)[C@H]([C@@H](C)CC)NC1=O [FP0597c_c8, Oct-A-MG-I-L-D-A-H-I-MB-R-V-W-NH2] (Octanoyl-A[dαMeDab(Me)]ILDAHI[X1]RVW-NH2; linker 2-9 via X2)	solubility ([2]; Table 2, read-out: Solubility): 2 µM (≈ 3.4 µg/mL)
	4 (≈ 7.02 µg/mL)	CCCCCCCCCCCC(=O)N[C@@H](C)C(=O)N[C@]1(C)CCN(C)C(=O)OCC=CCOC(=O)N2CC[C@@](C(=O)N[C@@H](CCCNC(=N)N)C(=O)N[C@H](C(=O)N[C@@H](Cc3c[nH]c4ccccc34)C(N)=O)C(C)C)(C2)NC(=O)[C@H]([C@@H](C)CC)NC(=O)[C@H](Cc2c[nH]cn2)NC(=O)[C@H](C)NC(=O)[C@H](CC(=O)O)NC(=O)[C@H](CC(C)C)NC(=O)[C@H]([C@@H](C)CC)NC1=O [FP0597c_c12, Dodec-A-MG-I-L-D-A-H-I-MB-R-V-W-NH2] (Lauroyl-A[dαMeDab(Me)]ILDAHI[X1]RVW-NH2; linker 2-9 via X2)	

From patent US11198713B2, “Agents modulating beta-catenin functions and methods thereof” (FOG PHARMACEUTICALS, INC., priority 2017, dated 2021)
